Experiments:
[1] = target: degron-fused GAPDH protein (Homo sapiens, UniProt P04406+Q96SW2); details: one day treatment with 3 μM POM; degron and superdegron iPSC clones
Method: To determine whether gene-editing of iPSCs with a targeting construct, wherein the homology arms of which enable its integration in the endogenous GAPDH locus, affects the expression of GAPDH, three clones bi-allelically modified with a targeting construct comprising a 3 aa linker, GGS and a degron (as depicted in FIG. 7G) and one clone bi-allelically modified with superdegron-comprising targeting construct (as depicted in FIG. 7J) were treated with 3 μM POM for up to 3 days.

[2] = test system: unedited cells (GFP-negative) iPSCs; assay: Effect of POM on unedited cells in the mixture with gene-edited iPSCs; type: cell-based; details: 3 μM POM for 6d; heterogenous mixture
Method: (§1) Functionality of the kill switch was tested in iPSCs using the targeting construct depicted in FIG. 7G, which comprises a linker, a degron sequence, an IRES, and a GFP transgene sequence flanked by GAPDH homology arms. On the day of Nucleofection, iPSCs were harvested and resuspended in Lonza P3 primary cell nucleofection buffer. Ribonucleoproteins (RNPs) were complexed with sgRNAs using 1:2 ratio of protein:sgRNA (IDT). Nucleofection of complexed RNP together with a targeting construct into resuspended iPSCs was accomplished using LONZA 4D Nucleofector. The Nucleofected cells were then plated and assessed for targeting events.
(§2) A heterogenous mixture of unedited cells (GFP-negative) and cells edited with a construct depicted in FIG. 7G, comprising a degron fused to GAPDH as well as GFP (GFP-positive) were treated with 3 μM pomalidomide (POM) for 6d or fed with complete medium without POM (untreated).

[3] = test system: myeloid progenitor (MP) cells differentiated from biallelically gene-edited iPSC clones A, B, and C; assay: AO/PI Incucyte cell death of myeloid progenitor cells differentiated from gene-edited iPSCs; type: cell-based; details: 1 μM POM, 108 hours
Description: (§3) To expand the applicability of the degron-comprising constructs to additional differentiated cell types, unedited parental iPSCs and biallelically gene-edited iPSC clones A, B, and C comprising targeting construct as depicted in FIG. 7G were differentiated into myeloid progenitor (MP) cells as depicted in FIG. 17. The differentiation protocol was adapted from Douvaras et al., 2017 Jun. 6; 8 (6): 1516-1524 and PCT publication nos. WO 2023/150089 A1 and WO 2017/152081 A1, which are hereby incorporated by reference in their entireties. Cell death was assessed post-thaw after MP cells were plated down in the presence and absence of POM. Acridine Orange/Propidium Iodine (AO/PI) dye was used to quantify cell death in an Incucyte Imager over a period of 108 hours.

[4] = test system: dopaminergic (DA) neurons differentiated from gene-edited iPSC clones (degron linked to GAPDH); assay: Annexin V Incucyte cell death of DA neurons differentiated from gene-edited iPSCs; type: cell-based
Method: (§4) In order to determine the applicability of the degron-comprising targeting constructs to differentiated cells, unedited parental iPSCs and gene-edited iPSC clones B and C were differentiated into dopaminergic (DA) neurons as depicted in FIG. 13. The differentiation protocol was adapted from Kriks et al., 2011, Nature 480 (7378): 547-551 and U.S. Pat. No. 10,711,243, which are hereby incorporated by reference in their entireties. Cell death was assessed post-thaw after cells were plated down in the presence and absence of various concentrations of POM. Annexin V dye was used to quantify cell death in an Incucyte imager over a period of 5 days.
(§5) Cells were differentiated from iPSCs into DA neurons using the same protocol as depicted in FIG. 13. DA neurons were plated and stained with Annexin V dye and cell death was measured using an Incucyte Imager over a period of 144 hours.

[5] = test system: myeloid progenitor (MP) cells differentiated from unedited parental iPSCs; assay: AO/PI Incucyte cell death of myeloid progenitor cells from unedited parental iPSCs; type: cell-based; details: 1 μM POM; 108 hours
Description: as §3

[6] = test system: iPSCs transfected with degron or superdegron GAPDH targeting constructs; assay: Linker length: amplicon depletion after POM relative to untreated cells; type: cell-based; details: 3 μM POM; construct with 3 aa linker and degron
Description: (§6) Two sets of targeting constructs were generated as described in Section 8.1. The first set of targeting constructs were designed to comprise a linker, a degron or superdegron sequence, an IRES sequence, and a GFP transgene sequence flanked by GAPDH homology arms as depicted in FIGS. 7G-7J, wherein the linker lengths were 3 aa (linker 1, GGS), 15 aa (linker 2, SEQ ID NO:23), 27 aa (linker 3, SEQ ID NO:103) and 10 aa (linker 4, SEQ ID NO:15). The second set of targeting constructs were designed to comprise a linker and a degron or superdegron sequence flanked by GAPDH homology arms as depicted in FIGS. 7A-7D. For both sets, the homology arms were designed to enable integration of the construct in the endogenous GAPDH locus, immediately 5′ of the GAPDH endogenous STOP codon. iPSCs were transfected with each construct individually.
Next, the iPSCs transfected with the second set of targeting constructs were evaluated, wherein amplicon depletion was assessed following POM treatment relative to untreated cells. […] Taken together, targeting construct linker length and degron type might be key factors to trigger cell death in gene-edited cells.

[7] = test system: unedited parental cells (iPSCs); assay: Growth of unedited parental iPSCs under POM; type: cell-based; details: 0.5 μM POM for 5 days
Method: The same gene-edited iPSC clones in Example 4 were treated with 0.5 μM POM for 5 days to determine if there were any differences between the survival rates.

[8] = test system: pool of iPSCs transfected with degron or superdegron GAPDH IRES-GFP targeting constructs; assay: Linker length: flow cytometry of GFP signal depletion in transfected iPSC pools; type: cell-based; details: 3 μM POM for 4 days
Description: as §6
A pool of iPSCs transfected with the first set of targeting constructs, potentially comprising both mono-allelically and bi-allelically gene edited iPSCs, were evaluated using flow cytometry, wherein the depletion of GFP signal was assessed following treatment with 3 μM POM for 4 days. Among gene-edited iPSCs, those that were transfected with the superdegron-comprising targeting construct had the lowest percentage of GFP-positive cells, whereas approximately ⅓ to ½ of […] cells transfected with one of the degron-comprising targeting constructs were GFP-positive.

[9] = test system: iPSC clone bi-allelically modified with a degron fused to GAPDH and IRES-GFP; assay: Incucyte live cells/well of a bi-allelically modified iPSC clone under POM; type: cell-based; details: 1 μM POM
Description: The percentage of live cells/well was quantified at several timepoints using the Incucyte software and normalized for the number of live cells/well at the first image timepoint.

[10] = test system: iPSCs edited with a construct comprising a degron fused to GAPDH as well as GFP (GFP-positive); assay: Depletion of GFP-positive gene-edited iPSCs in a mixture with unedited cells after POM; type: cell-based; details: 3 μM POM for 6d; heterogenous mixture; FIG. 7G construct
Method: as §1, §2

[11] = test system: gene-edited iPSC clones (degron or superdegron linked to GAPDH); type: cell-based
[12] = test system: DA neurons derived from unedited parental iPSCs; assay: Annexin V Incucyte cell death of DA neurons derived from unedited parental iPSCs; type: cell-based
Method: as §4, §5

GAPDH expression = assay: qPCR of GAPDH expression in gene-edited iPSC clones; type: cell-based; details: 3 μM POM for up to 3 days; three degron clones and one superdegron clone

Sequence of degron-fused GAPDH protein (P04406 other isoform, or with tags, fused parts or gaps): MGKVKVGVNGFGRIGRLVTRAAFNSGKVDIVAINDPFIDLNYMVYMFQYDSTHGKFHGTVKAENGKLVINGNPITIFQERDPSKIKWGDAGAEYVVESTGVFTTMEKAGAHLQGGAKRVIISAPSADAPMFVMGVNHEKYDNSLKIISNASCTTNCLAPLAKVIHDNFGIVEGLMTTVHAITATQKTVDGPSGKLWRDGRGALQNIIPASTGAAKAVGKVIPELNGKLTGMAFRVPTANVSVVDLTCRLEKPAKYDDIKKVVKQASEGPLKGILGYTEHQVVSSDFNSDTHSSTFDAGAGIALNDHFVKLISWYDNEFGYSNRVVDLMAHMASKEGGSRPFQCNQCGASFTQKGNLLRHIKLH
Sequence of degron-fused GAPDH protein (Q96SW2 whole entry, the tested form may be a part): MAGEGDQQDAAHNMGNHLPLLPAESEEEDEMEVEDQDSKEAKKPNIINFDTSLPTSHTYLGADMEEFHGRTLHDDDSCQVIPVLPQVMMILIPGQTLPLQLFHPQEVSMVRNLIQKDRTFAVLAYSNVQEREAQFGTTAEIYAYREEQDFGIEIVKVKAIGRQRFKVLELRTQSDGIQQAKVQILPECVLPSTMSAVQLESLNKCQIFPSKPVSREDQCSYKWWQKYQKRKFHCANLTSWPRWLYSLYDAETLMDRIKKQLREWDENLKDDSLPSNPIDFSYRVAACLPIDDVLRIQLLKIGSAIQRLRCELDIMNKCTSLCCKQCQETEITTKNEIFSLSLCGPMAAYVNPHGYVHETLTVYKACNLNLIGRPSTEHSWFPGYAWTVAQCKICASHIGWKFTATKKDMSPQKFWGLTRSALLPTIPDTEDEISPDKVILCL
Sequence of degron-fused GAPDH protein (Q16531 whole entry, further chain, the tested form may be a part): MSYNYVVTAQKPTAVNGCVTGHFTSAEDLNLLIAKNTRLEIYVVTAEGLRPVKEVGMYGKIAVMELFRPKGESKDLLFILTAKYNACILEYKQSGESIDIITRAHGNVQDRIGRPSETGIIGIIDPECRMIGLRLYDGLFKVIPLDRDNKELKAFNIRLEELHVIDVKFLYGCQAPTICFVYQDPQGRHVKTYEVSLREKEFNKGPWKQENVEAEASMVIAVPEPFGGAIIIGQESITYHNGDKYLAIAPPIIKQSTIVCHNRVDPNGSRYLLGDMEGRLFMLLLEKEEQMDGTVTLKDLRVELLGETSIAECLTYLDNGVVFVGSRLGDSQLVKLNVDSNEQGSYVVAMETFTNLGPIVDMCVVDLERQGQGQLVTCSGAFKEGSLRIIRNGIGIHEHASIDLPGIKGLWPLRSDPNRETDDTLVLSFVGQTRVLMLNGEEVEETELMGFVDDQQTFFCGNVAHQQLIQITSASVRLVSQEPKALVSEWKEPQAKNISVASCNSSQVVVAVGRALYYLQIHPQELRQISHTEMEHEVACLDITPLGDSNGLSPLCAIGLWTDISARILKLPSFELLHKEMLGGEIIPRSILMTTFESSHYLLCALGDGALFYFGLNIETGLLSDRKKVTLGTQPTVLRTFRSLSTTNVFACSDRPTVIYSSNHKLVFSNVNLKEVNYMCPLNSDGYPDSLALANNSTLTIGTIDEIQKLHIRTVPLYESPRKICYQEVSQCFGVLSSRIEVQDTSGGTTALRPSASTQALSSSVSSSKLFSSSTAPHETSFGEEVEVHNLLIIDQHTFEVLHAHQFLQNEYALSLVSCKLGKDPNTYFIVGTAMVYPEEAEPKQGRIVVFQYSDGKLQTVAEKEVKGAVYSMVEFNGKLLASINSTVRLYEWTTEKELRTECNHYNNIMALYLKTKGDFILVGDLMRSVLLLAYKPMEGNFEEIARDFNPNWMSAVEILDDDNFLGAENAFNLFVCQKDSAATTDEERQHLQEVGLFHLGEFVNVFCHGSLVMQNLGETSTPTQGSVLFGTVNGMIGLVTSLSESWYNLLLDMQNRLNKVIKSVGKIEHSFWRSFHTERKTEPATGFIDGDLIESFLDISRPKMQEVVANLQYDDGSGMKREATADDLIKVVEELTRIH

`Nc1cccc2c1C(=O)N(C1CCC(=O)NC1=O)C2=O` (stereo not shown) [POM, pomalidomide] was tested, and the “GAPDH protein by western blot” value [1] was “completely depleted”, the “effect on unedited cells” value [2] was “did not affect unedited cells” and the “cell death of gene-edited MP clones” value [3] was “died in response to POM”. The “POM concentration giving nearly complete cell death” value ([4]; Clone A or Clone C, by 144 hours, range 0.01 μM to 100 μM) was 0.1 µM, the “POM concentration giving complete killing (lowest concentration evaluated)” value ([4]; DA neurons derived from clone B, 5-day treatment) was 10 nM and the “death of neurons at all POM concentrations evaluated” value ([4]; clone B and clone C, by day 5, 0.13 μM-1 μM POM) was “complete death of all neurons”. For the same molecule, the “cell death of unedited parental MP line” value [5] was “no increase in cell death”, the “amplicon depletion relative to untreated cells” value [6] was “associated with amplicon depletion” and the “growth of unedited parental cells” value [7] was “did not affect the growth of unedited parental cells”. For the same molecule, the “depletion of GFP-positive cells” value ([8]; degron construct with the shortest linker (3 aa, GGS)) was “depleted GFP-positive cells”, the “depletion of GFP-positive cells” value ([8]; degron constructs with 15 aa and 27 aa linkers (no depletion implied)) was “only if they were transfected with the degron-comprising targeting construct with the shortest linker or the superdegron-comprising targeting construct” and the “depletion of GFP-positive cells” value ([8]; superdegron construct (10 aa linker)) was “depleted GFP-positive cells”. The “elimination of gene edited cells” value ([9]; 92 hours after addition) was “completely eliminated”, the “time after addition of POM at which cell death rate surpassed proliferation rate” value ([9]; bi-allelic FIG. 7G clone, Incucyte) was “around 24 hours” and the “effect on the population of edited GFP-positive cells” value [10] was “depleted the population of edited GFP-positive cells”. For the same molecule, the “killing of gene-edited iPSCs” value ([11]; 0.5 μM POM for 5 days, degron and superdegron clones of Example 4) was “complete killing of all gene-edited iPSCs”, the “POM concentration sufficient to achieve complete killing” value ([11]; degron construct, monitored 5 days, range 0.03125 μM to 10 μM) was 0.5 µM and the “POM concentration able to trigger apoptosis” value ([11]; degron construct, monitored 5 days, range 0.03125 μM to 10 μM, data not shown) was 0.25 µM. The “lowest POM concentration evaluated, associated with apoptosis of all cells” value ([11]; superdegron construct, monitored 5 days) was 0.03125 µM, the “cell death at any POM concentration tested” value ([12]; 0.01 μM to 100 μM POM, 144 hours) was “No differences in cell death” and the “neuronal death with vs without POM” value ([12]; various POM concentrations, 5 days) was “No differences in neuronal death”. The “GAPDH expression by qPCR, untreated vs POM-treated gene-edited cells” value (GAPDH expression) was “No large differences in GAPDH expression”.
